Data reported in US20170253607A1, “LONG-ACTING HIV PROTEASE INHIBITOR” (Shionogi & Co., Ltd., priority 2014, published 2017).

biological target: HIV-1 PR (Human immunodeficiency virus type 1 group M subtype B, UniProt P04585); assay: HIV-protease inhibitory activity assay (FRET peptide substrate); assay type: biochemical; settings: Test Example 1
Procedure, shortened: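 Fluorescence recovery at ex 485/em 535 nm reports cleavage of a quenched FRET peptide (2 μmol/L final) by 0.83 ng enzyme over 60 minutes at room temperature. Buffer was NaAc pH 4.8 with NaCl, EDTA, DTT and Tween 20. IC50 values came from four-parameter logistic regression of % inhibition.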

| SMILES | IC50 [nM] |
| --- | --- |
| COc1ccc(S(=O)(=O)N(CC(C)C)CC(O)C(Cc2ccc(NCc3ccccc3-c3c(C(=O)O)cnc4ccsc34)cc2)NC(=O)OC2COC3(C)OCCC23)cc1 (stereo not drawn) [Compound I-501] | 1.82 |
| COc1ccc(S(=O)(=O)N(CC(C)C)CC(O)C(Cc2ccc(N(C)CC3CCCCC3c3sc4c(c3C(=O)O)CC(C)(C)CC4)cc2)NC(=O)OC2COC3(C)OCCC23)cc1 (stereo not drawn) [Compound I-359] | 3.77 |
| COc1ccc(S(=O)(=O)N(CC(C)C)CC(O)C(Cc2ccc(CN(C)C3CCCCC3c3sc4c(c3C(=O)O)CC(C)(C)CC4)cc2)NC(=O)OC2COC3(C)OCCC23)cc1 (stereo not drawn) [Compound I-345] | 1.82 |
| COc1ccc(S(=O)(=O)N(CC(C)C)CC(O)C(Cc2ccc(NCc3ccc(C#N)cc3-c3sc4c(c3C(=O)O)CC(C)(C)CC4)cc2)NC(=O)OC2COC3(C)OCCC23)cc1 (stereo not drawn) [Compound I-565] | 1.75 |
| COc1ccc(S(=O)(=O)N(CC(C)C)CC(O)C(Cc2ccc(N(C)C3Cc4cccc(-c5sc6c(c5C(=O)O)CC(C)(C)CC6)c4C3)cc2)NC(=O)OC2COC3(C)OCCC23)cc1 (stereo not drawn) [Compound I-404] | 1.88 |
| COc1ccc(S(=O)(=O)N(CC(C)C)CC(O)C(Cc2ccc(NCc3cc(Oc4ccccc4)ccc3-c3sc4c(c3C(=O)O)CC(C)(C)CC4)cc2)NC(=O)OC2COC3(C)OCCC23)cc1 (stereo not drawn) [Compound I-654] | 8.75 |
| COc1ccc(S(=O)(=O)N(CC(C)C)CC(O)C(Cc2ccc(N(C)Cc3cc(C#N)ccc3-c3sc4c(c3C(=O)O)CC(C)(C)CC4)cc2)NC(=O)OC2COC3(C)OCCC23)cc1 (stereo not drawn) [Compound I-452] | 2.6 |
| COc1ccc(S(=O)(=O)N(CC(C)C)CC(O)C(Cc2ccc(NCc3ccccc3-c3c(C(=O)O)[nH]c4ccc(OC)cc34)cc2)NC(=O)OC2COC3(C)OCCC23)cc1 (stereo not drawn) [Compound I-506] | 1.7 |
| COc1ccc(S(=O)(=O)N(CC(C)C)CC(O)C(Cc2ccc(NCc3ccc(-c4c(C(=O)O)sc5c4CC(C)(C)CC5)cc3)cc2)NC(=O)OC2COC3(C)OCCC23)cc1 (stereo not drawn) [Compound I-356] | 3.3 |
| COc1ccc(S(=O)(=O)N(CC(C)C)CC(O)C(Cc2ccc(N(C)Cc3nc(N4CCCC4)ccc3-c3sc4c(c3C(=O)O)CC(C)(C)CC4)cc2)NC(=O)OC2COC3(C)OCCC23)cc1 (stereo not drawn) [Compound I-755] | 2.69 |
| COc1ccc(S(=O)(=O)N(CC(C)C)CC(O)C(Cc2ccc(NCc3nc(N(C4CCCCC4)C4CCCCC4)sc3-c3sc4c(c3C(=O)O)CC(C)(C)CC4)cc2)NC(=O)OC2COC3(C)OCCC23)cc1 (stereo not drawn) [Compound I-760] | 3.38 |
| COc1ccc(S(=O)(=O)N(CC(C)C)CC(O)C(Cc2ccc(N3CCc4c(-c5sc6c(c5C(=O)O)CC(C)(C)CC6)cccc43)cc2)NC(=O)OC2COC3(C)OCCC23)cc1 (stereo not drawn) [Compound I-300] | 4.78 |
| COc1ccc(S(=O)(=O)N(CC(C)C)CC(O)C(Cc2ccc(NCC3=C(c4sc5c(c4C(=O)O)CC(C)(C)CC5)CCN(C)C3)cc2)NC(=O)OC2COC3(C)OCCC23)cc1 (stereo not drawn) [Compound I-403] | 2.3 |
| COc1ccc(S(=O)(=O)N(CC(C)C)CC(O)C(Cc2ccc(NCc3nc(N4CCC4)sc3-c3sc4c(c3C(=O)O)CC(C)(C)CC4)cc2)NC(=O)OC2COC3(C)OCCC23)cc1 (stereo not drawn) [Compound I-753] | 2.39 |
| COc1ccc(S(=O)(=O)N(CC(C)C)CC(O)C(Cc2ccc(NCc3cncc(C(=O)Nc4sc5c(c4C(=O)O)CC(C)(C)CC5)c3)cc2)NC(=O)OC2COC3(C)OCCC23)cc1 (stereo not drawn) [Compound I-443] | 1.88 |
| CC1(C)CCc2sc(-c3ccc(C(F)(F)F)cc3CNc3ccc(CC(NC(=O)OC4COC5OCCC45)C(O)CN(CC4CCC4)S(=O)(=O)c4ccc5c(c4)OCO5)cc3)c(C(=O)O)c2C1 (stereo not drawn) [Compound I-875] | 6.78 |
| COc1ccc(S(=O)(=O)N(CC(C)C)CC(O)C(Cc2ccc(OC3CCN(c4ccc(C#N)cc4-c4sc5c(c4C(=O)O)CC(C)(C)CC5)C3)cc2)NC(=O)OC2COC3(C)OCCC23)cc1 (stereo not drawn) [Compound I-200] | 5.08 |

| SMILES | IC50 [nM] |
| --- | --- |
| COc1ccc(S(=O)(=O)N(CC(C)C)C[C@@H](O)[C@H](Cc2ccc(OCc3ccc(-c4ccc(F)cc4F)cc3C(=O)NC(N)=O)cc2)NC(=O)O[C@H]2CO[C@@]3(C)OCC[C@@H]23)cc1 [Compound I-24] | 1.39 |
| COc1ccc(S(=O)(=O)N(CC(C)C)CC(O)C(Cc2ccc(NCc3ccccc3-c3csc4c(C(=O)O)cccc34)cc2)NC(=O)OC2COC3(C)OCCC23)cc1 (stereo not drawn) [Compound I-898] | 1.78 |
| COc1ccc(S(=O)(=O)N(CC(C)C)CC(O)C(Cc2ccc(N(C)CCCc3sc4c(c3C(=O)O)CC(C)(C)CC4)cc2)NC(=O)OC2COC3(C)OCCC23)cc1 (stereo not drawn) [Compound I-336] | 2.13 |
| COc1ccc(S(=O)(=O)N(CC(C)C)CC(O)C(Cc2ccc(NCc3ccccc3-c3ccc(-c4sc5c(c4C(=O)O)CC(C)(C)CC5)nc3)cc2)NC(=O)OC2COC3(C)OCCC23)cc1 (stereo not drawn) [Compound I-713] | 1.69 |
| COc1ccc(S(=O)(=O)N(CC(C)C)CC(O)C(Cc2ccc(N3CC4CN(C(=O)c5sc6c(c5C(=O)O)CC(C)(C)CC6)CC4C3)cc2)NC(=O)OC2COC3(C)OCCC23)cc1 (stereo not drawn) [Compound I-223] | 1.97 |
| COc1ccc(S(=O)(=O)N(CC(C)C)CC(O)C(Cc2ccc(NCc3ccccc3-c3sc4c(c3C(=O)O)C(=O)CCC4)cc2)NC(=O)OC2COC3(C)OCCC23)cc1 (stereo not drawn) [Compound I-367] | 2.61 |
| COc1ccc(S(=O)(=O)N(CC(C)C)CC(O)C(Cc2ccc(OC3CCCN(Cc4sc5c(c4C(=O)O)CC(C)(C)CC5)C3)cc2)NC(=O)OC2COC3(C)OCCC23)cc1 (stereo not drawn) [Compound I-198] | 1.95 |
| COc1ccc(S(=O)(=O)N(CC(C)C)CC(O)C(Cc2ccc(N3Cc4nc5ccccc5cc4C3=O)cc2)NC(=O)OC2COC3OCCC23)cc1 (stereo not drawn) [Compound I-888] | 2.1 |
| COc1ccc(S(=O)(=O)N(CC(C)C)CC(O)C(Cc2ccc(OCc3ccccc3-c3sc4c(c3-c3noc(=O)[nH]3)CC(C)(C)CC4)cc2)NC(=O)OC2COC3OCCC23)cc1 (stereo not drawn) [Compound I-815] | 1.63 |
| COc1ccc(S(=O)(=O)N(CC(C)C)CC(O)C(Cc2ccc(NCC3(c4ccc(-c5sc6c(c5C(=O)O)CC(C)(C)CC6)cc4)CCCC3)cc2)NC(=O)OC2COC3(C)OCCC23)cc1 (stereo not drawn) [Compound I-340] | 5.6 |
| COc1ccc(S(=O)(=O)N(CC(C)C)CC(O)C(Cc2ccc(N3CCN(c4ccc(C#N)cc4-c4sc5c(c4C(=O)O)CC(C)(C)CC5)CC3)cc2)NC(=O)OC2COC3(C)OCCC23)cc1 (stereo not drawn) [Compound I-232] | 4.1 |
| COc1ccc(S(=O)(=O)N(CC2CCC2)CC(O)C(Cc2ccc(N(C)Cc3ccccc3C(=O)Nc3sc4c(c3C(=O)O)CC(C)(C)CC4)cc2)NC(=O)OC2COC3(C)OCCC23)cc1 (stereo not drawn) [Compound I-682] | 4.37 |
| COc1ccc(S(=O)(=O)N(CC(C)C)CC(O)C(Cc2ccc(OCc3ccccc3-c3ccc4c(O)c(-c5ccc(Oc6ccccc6)cc5)c(=O)n(C)c4c3)cc2)NC(=O)OC2COC3OCCC23)cc1 (stereo not drawn) [Compound I-822] | 2.08 |
| COc1ccc(S(=O)(=O)N(CC(C)C)CC(O)C(Cc2ccc(N(Cc3ccoc3)Cc3ccccc3-c3sc4c(c3C(=O)O)CC(C)(C)CC4)cc2)NC(=O)OC2COC3(C)OCCC23)cc1 (stereo not drawn) [Compound I-424] | 5.41 |
| COc1ccc(S(=O)(=O)N(CC(C)C)CC(O)C(Cc2ccc(N(CCC(F)(F)F)Cc3ccccc3-c3sc4c(c3C(=O)O)CC(C)(C)CC4)cc2)NC(=O)OC2COC3(C)OCCC23)cc1 (stereo not drawn) [Compound I-430] | 17.5 |
| COc1ccc(S(=O)(=O)N(CC(C)C)CC(O)C(Cc2ccc(NCC3CC(C)(C)CCC3c3sc4c(c3C(=O)O)CC(C)(C)CC4)cc2)NC(=O)OC2COC3OCCC23)cc1 (stereo not drawn) [Compound I-887] | 2.85 |
